Results from ChEMBL document CHEMBL1121894, “Studies on phenethylamine hallucinogens. 2. Conformations of arylmethoxyl groups using 13C NMR” (1981).
Calls of active or inactive are those of the source. No cut-off for these calls is given here.

Key:
Homo sapiens [1] = species on record: Homo sapiens; test: Psychotomimetic potency expressed as the effective dose of mescaline divided by the effective dose in human; assay type: functional
Homo sapiens [2] = species on record: Homo sapiens; test: Psychotomimetic potency expressed as the effective dose of mescaline divided by the effective dose in human; Inactive; assay type: functional, organism-based

Row | Structure (SMILES) | Potency (Homo sapiens [1]) | Potency (Homo sapiens [2])
1 | COc1ccc(OC)c(CC(C)N)c1.Cl (stereo unspecified) | 8 MU | –
2 | COc1c(CC(C)N)ccc2c1OCO2.Cl (stereo unspecified) | 10 MU | –
3 | COc1ccc(CCN)c(OC)c1OC | – | inactive
4 | COc1cc(CC(C)N)c(OC)cc1C.Cl (stereo unspecified) | 80 MU | –
5 | COc1cc(CCN)cc(OC)c1OC.Cl | 1 MU | –
6 | COc1ccc(CC(C)N)c(OC)c1OC (stereo unspecified) | – | inactive
7 | COc1ccc(CC(C)N)cc1.Cl (stereo unspecified) | 5 MU | –
8 | COc1cc(OC)c(CC(C)N)c(OC)c1.Cl (stereo unspecified) | 10 MU | –
9 | COc1cc(CC(C)N)cc(OC)c1OC.Cl (stereo unspecified) | 2.2 MU | –
10 | COc1c(CCN)ccc2c1OCO2.Cl | 5 MU | –
11 | COc1cc(OC)c(OC)cc1CC(C)N.Cl (stereo unspecified) | 17 MU | –
